US20100285959A1, “HERBICIDAL MIXTURES” (priority 2006, published 2010)

Experiments:
field pennycress (THLAR) = experiment: Test 1 field trial, preemergence; format: in vivo, Thlaspi arvense; conditions: 28 DAA
Description: Corn seeds (hybrid ‘Pioneer 34N43’) were planted in mid spring season, 3.8 cm deep in a silt loam soil having 4.6% organic matter and a pH of 6. Plots were 10.7 m long by 1.5 m wide with rows spaced 76 cm apart. Seeds were spaced 18 cm apart within the rows. The field was managed using conventional tillage practices. […] Results are summarized in Table 1 and are the means of the three replicates. […] Colby's Equation (Colby, S. R. “Calculating Synergistic and Antagonistic Responses of Herbicide Combinations,” Weeds, 15(1), pp 20-22 (1967)) calculates the expected additive effect of herbicidal mixtures, and for two active ingredients is of the form:
Pa+b=Pa+Pb−(PaPb/100) • wherein Pa+b is the percentage effect of the mixture expected from additive contribution of the individual components, • Pa is the observed percentage effect of the first active ingredient at the same use rate as in the mixture, and • Pb is the observed percentage effect of the second active ingredient at the same use rate as in the mixture.

corn (ZEAMD) [1] = experiment: Test 5 field trial, postemergence; format: in vivo, Zea mays ssp. indentata; conditions: hybrid Pioneer 38H69, corn (Zea mays ssp. indentata), in vivo
Description: (§1) Corn seeds (hybrid ‘Pioneer 38H69’) were planted in mid spring season, 5.1 cm deep in a silty clay loam soil having 3% organic matter and a pH of 6.5. Plots were 9.1 m long by 3.0 m wide with rows spaced 76 cm apart. The field was managed using conventional tillage practices. […] All treatments included a surfactant except glufosinate treatments, both alone and in combination. […] Results are summarized in Table 5 and are the means of the three replicates.

common ragweed (AMBEL) = experiment: Test 5 field trial, postemergence; format: in vivo, Ambrosia artemisiifolia
Description: as §1

yellow foxtail (SETLU) = experiment: Test 5 field trial, postemergence; format: in vivo, Setaria glauca
Description: as §1

corn (ZEAMD) [2] = experiment: Test 6 field trial, postemergence; format: in vivo, Zea mays ssp. indentata; conditions: hybrid Pioneer 35Y62, corn (Zea mays ssp. indentata), in vivo
Description: (§2) Corn seeds (hybrid ‘Pioneer 35Y62’) were planted in mid spring season, 3.8 cm deep in a silt loam soil having 4% organic matter and a pH of 5.8. Plots were 10.7 m long by 1.5 m wide with rows spaced 76 cm apart. Seeds were spaced 18 cm apart within the rows. The field was managed using conventional tillage practices. […] All treatments included a surfactant except glufosinate treatments, both alone and in combination. […] Results are summarized in Table 6 and are the means of the three replicates.

redroot pigweed (AMARE) [3] = experiment: Test 6 field trial, postemergence; format: in vivo, Amaranthus retroflexus
Description: as §2

corn (ZEAMD) [4] = experiment: Test 8 field trial, preemergence; format: in vivo, Zea mays ssp. indentata; conditions: hybrid Pioneer 31G96, corn (Zea mays ssp. indentata), in vivo, 56 days after application
Description: (§3) Corn seeds (hybrid ‘Pioneer 31G96’) were planted in mid spring season, 3.8 cm deep in a clay loam soil having 2% organic matter and a pH of 6.6. Plots were 6.1 m long by 3.0 m wide with rows spaced 76 cm apart. Seeds were spaced 15 cm apart within the rows. The field was managed using conventional tillage practices. […] A few of the weed species could not be evaluated at every timing. […] Results are the means of the three replicates.

redroot pigweed (AMARE) [5] = experiment: Test 8 field trial, preemergence; format: in vivo, Amaranthus retroflexus; conditions: 56 DAA
Description: as §3

common cocklebur (XANST) = experiment: Test 10 field trial, preemergence; format: in vivo, Xanthium strumarium ssp. strumarium; conditions: 28 DAA
Description: Corn seeds (hybrid ‘Pioneer 33P65 RR’) were planted in mid spring season, 2.5 cm deep in a silt loam soil. Plots were 9.1 m long by 3.0 m wide with rows spaced 76 cm apart. The field was managed using conventional tillage practices. […] Results are the means of the three replicates.

Surinam grass (BRADC) = experiment: Test 11 field trial, preemergence; format: in vivo, Brachiaria decumbens; parameters: scale not given here; conditions: alone or + atrazine 1500 or metolachlor 2500
Description: (§4) Corn seeds (hybrid ‘Pioneer 3041’) were planted in mid spring season, 5 cm deep in a clay soil having 2.6% organic matter and a pH of 5.6. Plots were 8 m long by 1.5 m wide with rows spaced 80 cm apart. Seeds were spaced 15 cm apart within the rows. The field was managed using conventional tillage practices. […] Treatments consisted of Compound 2 or
(§5) Goosegrass was not evaluated 16 or 91 days after application.

[6] = system: Brazilian crabgrass (DIGHO); experiment: Test 11 field trial, preemergence; format: in vivo, Digitaria horizontalis; parameters: scale not given here; conditions: alone or + atrazine 1500 or metolachlor 2500
Description: as §4, §5

goosegrass (ELEIN) = experiment: Test 11 field trial, preemergence; format: in vivo, Eleusine indica
Description: as §4, §5

[7] = system: Ipomoea grandiflora (IPOGF); experiment: Test 11 field trial, preemergence; format: in vivo
Description: as §4, §5

[8] = g a.i./ha: Cpd 2 50, S-Metolachlor 1870
[9] = g a.i./ha: Cpd 2 100, Atrazine 1680, S-Metolachlor 1870
[10] = g a.i./ha: Cpd 2 150, S-Metolachlor 1870
[11] = 16 DAA, Cpd 2 30 g a.i./ha alone or with glufosinate 470 or glyphosate 1120
[12] = 16 DAA, Cpd 2 60 g a.i./ha alone or with atrazine 1120, glufosinate 470 or glyphosate 1120
[13] = 31 DAA, Cpd 2 30 g a.i./ha alone or with glufosinate 470 or glyphosate 1120
[14] = 31 DAA, Cpd 2 60 g a.i./ha alone or with atrazine 1120, glufosinate 470 or glyphosate 1120
[15] = 16 DAA, Cpd 2/Cpd 1 at 62 g a.i./ha
[16] = 16 DAA, Cpd 2/Cpd 1 at 125 g a.i./ha
[17] = 30 DAA, Cpd 2/Cpd 1 at 62 g a.i./ha
[18] = 30 DAA, Cpd 2/Cpd 1 at 125 g a.i./ha
[19] = 44 DAA, Cpd 2/Cpd 1 at 62 g a.i./ha
[20] = 44 DAA, Cpd 2/Cpd 1 at 125 g a.i./ha
[21] = 62 DAA, Cpd 2/Cpd 1 at 62 g a.i./ha
[22] = 62 DAA, Cpd 2/Cpd 1 at 125 g a.i./ha
[23] = 91 DAA, Cpd 2/Cpd 1 at 62 g a.i./ha
[24] = 91 DAA, Cpd 2/Cpd 1 at 125 g a.i./ha
[25] = 30 DAA, Cpd 2/Cpd 1 at 62 g a.i./ha, alone or + atrazine 1500 or metolachlor 2500
[26] = 30 DAA, Cpd 2/Cpd 1 at 125 g a.i./ha, alone or + atrazine 1500 or metolachlor 2500
[27] = 44 DAA, Cpd 2/Cpd 1 at 62 g a.i./ha, alone or + atrazine 1500 or metolachlor 2500
[28] = 44 DAA, Cpd 2/Cpd 1 at 125 g a.i./ha, alone or + atrazine 1500 or metolachlor 2500
[29] = 62 DAA, 62 g a.i./ha, scale 0 to 100
[30] = 62 DAA, 125 g a.i./ha, scale 0 to 100

## COC(=O)c1nc(C2CC2)nc(N)c1Cl [Compound 2, methyl 6-amino-5-chloro-2-cyclopropyl-4-pyrimidinecarboxylate]
Field pennycress (THLAR); [8]
  THLAR Obs: 0
Field pennycress (THLAR); [9]
  THLAR Obs: 0
Field pennycress (THLAR); [10]
  THLAR Obs: 7
Corn (ZEAMD) [1]; 16 days after application
  ZEAMD Obs: 0%
Corn (ZEAMD) [1]; 31 days after application
  ZEAMD Obs: 0%
Common ragweed (AMBEL); [11]
  AMBEL Obs: 85%
Common ragweed (AMBEL); [12]
  AMBEL Obs: 95%
Common ragweed (AMBEL); [13]
  AMBEL Obs: 83%
Common ragweed (AMBEL); [14]
  AMBEL Obs: 99%
Yellow foxtail (SETLU); [11]
  SETLU Obs: 2%
Yellow foxtail (SETLU); [12]
  SETLU Obs: 0%
Yellow foxtail (SETLU); [13]
  SETLU Obs: 0%
Yellow foxtail (SETLU); [14]
  SETLU Obs: 2%
Corn (ZEAMD) [2]; 14 days after application
  ZEAMD Obs: 0%
Corn (ZEAMD) [2]; 28 days after application
  ZEAMD Obs: 0%
Redroot pigweed (AMARE) [3]; 14 DAA, 30 g a.i./ha
  AMARE Obs: 100%
Redroot pigweed (AMARE) [3]; 14 DAA, 60 g a.i./ha
  AMARE Obs: 98%
Redroot pigweed (AMARE) [3]; 28 DAA, 30 g a.i./ha
  AMARE Obs: 100%
Redroot pigweed (AMARE) [3]; 28 DAA, 60 g a.i./ha
  AMARE Obs: 98%
Corn (ZEAMD) [4]
  ZEAMD Obs: 0%
Redroot pigweed (AMARE) [5]; [8]
  AMARE Obs: 45%
Redroot pigweed (AMARE) [5]; [9]
  AMARE Obs: 100%
Redroot pigweed (AMARE) [5]; [10]
  AMARE Obs: 100%
Common cocklebur (XANST); [8]
  XANST Obs: 10%
Common cocklebur (XANST); [9]
  XANST Obs: 7%
Common cocklebur (XANST); [10]
  XANST Obs: 27%
Surinam grass (BRADC); [15]
  BRADC Obs: 40
Surinam grass (BRADC); [16]
  BRADC Obs: 60
Surinam grass (BRADC); [17]
  BRADC Obs: 40
Surinam grass (BRADC); [18]
  BRADC Obs: 70
Surinam grass (BRADC); [19]
  BRADC Obs: 0
Surinam grass (BRADC); [20]
  BRADC Obs: 60
Surinam grass (BRADC); [21]
  BRADC Obs: 0
Surinam grass (BRADC); [22]
  BRADC Obs: 0
Surinam grass (BRADC); [23]
  BRADC Obs: 0
Surinam grass (BRADC); [24]
  BRADC Obs: 0
[6]; [15]
  DIGHO Obs: 0
[6]; [16]
  DIGHO Obs: 40
[6]; [17]
  DIGHO Obs: 0
[6]; [18]
  DIGHO Obs: 40
[6]; [19]
  DIGHO Obs: 0
[6]; [20]
  DIGHO Obs: 0
[6]; [21]
  DIGHO Obs: 0
[6]; [22]
  DIGHO Obs: 0
[6]; [23]
  DIGHO Obs: 0
[6]; [24]
  DIGHO Obs: 0
Goosegrass (ELEIN); [25]
  ELEIN Obs: 0
Goosegrass (ELEIN); [26]
  ELEIN Obs: 20
Goosegrass (ELEIN); [27]
  ELEIN Obs: 0
Goosegrass (ELEIN); [28]
  ELEIN Obs: 0
Goosegrass (ELEIN); [29]
  ELEIN Obs: 0
Goosegrass (ELEIN); [30]
  ELEIN Obs: 0
[7]; 16 DAA, Cpd 2/Cpd 1 at 62 g a.i./ha, alone or + atrazine 1500 or metolachlor 2500
  IPOGF Obs: 0
[7]; 16 DAA, Cpd 2/Cpd 1 at 125 g a.i./ha, alone or + atrazine 1500 or metolachlor 2500
  IPOGF Obs: 40
[7]; [25]
  IPOGF Obs: 40
[7]; [26]
  IPOGF Obs: 60
[7]; [27]
  IPOGF Obs: 0
[7]; [28]
  IPOGF Obs: 50
[7]; [29]
  IPOGF Obs: 0
[7]; [30]
  IPOGF Obs: 0
[7]; 91 DAA, 62 g a.i./ha, scale 0 to 100
  IPOGF Obs: 0
[7]; 91 DAA, 125 g a.i./ha, scale 0 to 100
  IPOGF Obs: 0
